Here are results for 17 compounds from ChEMBL document CHEMBL1201862, “PubChem BioAssay data set” (2004).

Each structure is given as a SMILES string. Calls of active or inactive are those of the source.

The nature of assay [1]: HIV-1 AD8 envelope cell-cell fusion blockers – cherry-pick, dose response (AID 652062).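 Further: luciferase signal from cell-cell fusion driven by HIV-1 clade B AD8 Env; potency is for inhibitors of fusion seen as a drop in luminescence.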 It is filed as functional, cell-based.
Assay [2] is described as follows: blockers of HIV-1 ZM109 envelope-driven cell-cell fusion – HeLa effector, CEM target cells, luciferase, cherry-pick, dose response (AID 652058).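 Further: luciferase signal from HIV-1 Env mediated cell-cell fusion of effector and target cells.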 Type of assay: functional, cell-based.
Assay [3] is described as follows: blockers of HIV-1 envelope-mediated cell-cell fusion – cherry-pick, dose response (AID 652057). It is filed as functional, cell-based.
A further assay has as its system P388. The assay is described as follows: cells. It is filed as functional. The note with it: Mus musculus.
In another assay the test system is SN12K1. The assay is described as follows: cells. It is filed as functional. The conditions noted are these: Homo sapiens.
The next assay concerns P388/ADR. Briefly: cells. Type of assay: functional. The conditions noted are these: Mus musculus.
Assay [4] is described as follows: reduction of Shn3 3'UTR-driven luciferase in osteoblasts – cell-based, Clone20 osteoblasts, firefly luciferase, cherry-picked, dose response (AID 624132).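 Further: firefly luciferase luminescence from reporter carrying the Shn3 3'UTR in osteoblasts.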 It is filed as functional.
Assay [5] in a line: NIH3T3 cell viability loss – ATP luminescence, mouse fibroblasts, counter-screen, dose response (AID 2010).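 Further: cells exposed to compound for about 90 hours before reading.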 Type of assay: functional, cell-based. A general note: Counterscreens check selectivity or assay interference.
The nature of assay [6]: loss of viability in HepG2 cells – cell-based, CellTiter-Glo, cherry-picked, cytotoxicity control for Shn3 inhibitor project, dose response (AID 624134). Type of assay: functional. In general terms: In ATP-based viability assays light output follows the ATP content of the culture.
The subject of a further assay is HEK293. Briefly: EBV LMP1 TES2 canonical NF-kB signalling blockers – cell-based, HEK293, luciferase, cherry-pick, dose response (AID 588343). Type of assay: functional. The note with it: Homo sapiens.
A short description of assay [7]: non-specific 3'UTR reporter inhibition in Clone20-Shn3RL – cell-based, Renilla luciferase, cherry-picked, counter-screen for Shn3 inhibitor project, dose response (AID 624133). Type of assay: functional.
Assay [8] can be described thus: Trypanosoma cruzi growth suppression in host cells – NIH3T3 host cells, beta-gal luminescence, confirmation (AID 2044).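 Further: intracellular parasites grown in NIH/3T3 mouse fibroblasts as host cells; luminescent beta-galactosidase reporter signal from transgenic T. cruzi replicating inside host cells; inhibitors lower the luminescence signal.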 It is filed as functional, cell-based.
A short description of assay [9]: Luminescence Cell-Based Dose Retest to Confirm Inhibitors of Cancer Stem Cells. [Related pubchem assays (depositor defined):AID2717, AID2721]. Type of assay: functional. The conditions noted are these: Homo sapiens.
Assay [10] deals with T1, Microphthalmia-associated transcription factor (Homo sapiens, UniProt O75030).
T1 sequence (O75030 whole entry): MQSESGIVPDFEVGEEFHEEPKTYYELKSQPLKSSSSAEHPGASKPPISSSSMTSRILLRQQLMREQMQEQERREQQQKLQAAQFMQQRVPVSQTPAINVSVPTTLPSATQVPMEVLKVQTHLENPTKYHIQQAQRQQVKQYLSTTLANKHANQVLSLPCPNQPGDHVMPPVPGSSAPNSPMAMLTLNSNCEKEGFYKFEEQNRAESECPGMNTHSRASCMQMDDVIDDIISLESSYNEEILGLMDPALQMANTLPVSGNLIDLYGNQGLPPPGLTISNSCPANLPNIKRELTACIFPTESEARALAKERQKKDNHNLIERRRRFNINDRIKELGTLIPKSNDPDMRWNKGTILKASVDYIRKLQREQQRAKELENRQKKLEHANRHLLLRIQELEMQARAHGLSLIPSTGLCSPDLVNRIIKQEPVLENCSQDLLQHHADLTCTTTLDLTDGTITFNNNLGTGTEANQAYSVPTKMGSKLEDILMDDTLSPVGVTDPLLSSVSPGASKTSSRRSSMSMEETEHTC
Briefly: reducers of TRPM1 reporter luminescence, concentration series – cell-based, SK-MEL-5, cherry-picked, set 3, MITF inhibitor project, dose response (AID 493073).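 Further: SK-MEL-5 melanoma cells with luciferase driven by the MITF target TRPM1 promoter.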 Type of assay: functional.

The target in assay [11] is T2, Replicative DNA helicase DnaB (Mycobacterium tuberculosis, UniProt P9WMR3).
T2 sequence (P9WMR3 whole entry): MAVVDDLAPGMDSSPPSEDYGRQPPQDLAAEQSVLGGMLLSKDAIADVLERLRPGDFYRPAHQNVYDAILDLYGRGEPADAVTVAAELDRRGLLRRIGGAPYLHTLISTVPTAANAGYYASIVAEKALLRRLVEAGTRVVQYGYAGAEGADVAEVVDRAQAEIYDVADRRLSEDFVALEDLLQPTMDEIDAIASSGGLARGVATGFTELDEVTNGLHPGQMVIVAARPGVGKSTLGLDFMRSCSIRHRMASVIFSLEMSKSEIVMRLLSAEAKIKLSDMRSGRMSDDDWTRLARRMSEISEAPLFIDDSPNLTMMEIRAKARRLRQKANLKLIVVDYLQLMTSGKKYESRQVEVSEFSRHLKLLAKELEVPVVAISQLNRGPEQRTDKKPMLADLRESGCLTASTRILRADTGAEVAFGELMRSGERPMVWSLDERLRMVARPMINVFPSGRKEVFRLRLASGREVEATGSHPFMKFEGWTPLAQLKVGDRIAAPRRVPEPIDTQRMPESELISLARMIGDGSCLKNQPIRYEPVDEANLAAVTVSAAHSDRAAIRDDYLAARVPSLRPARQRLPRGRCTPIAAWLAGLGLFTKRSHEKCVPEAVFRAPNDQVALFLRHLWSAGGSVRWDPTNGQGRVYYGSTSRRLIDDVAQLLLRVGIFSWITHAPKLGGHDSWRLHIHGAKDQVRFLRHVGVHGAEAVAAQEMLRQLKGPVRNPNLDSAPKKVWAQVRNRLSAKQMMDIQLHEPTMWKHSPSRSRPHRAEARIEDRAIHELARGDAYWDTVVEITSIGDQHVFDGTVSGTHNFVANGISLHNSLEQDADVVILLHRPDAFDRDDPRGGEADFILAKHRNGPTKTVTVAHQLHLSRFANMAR
Briefly: DnaB intein splicing inhibitors, dose response, biochemical, cell-free fluorescence (AID 449749). Type of assay: functional.

Assay [12] concerns the target T3, Heat shock factor protein 1 (Mus musculus, UniProt P38532).
T3 sequence (P38532 whole entry): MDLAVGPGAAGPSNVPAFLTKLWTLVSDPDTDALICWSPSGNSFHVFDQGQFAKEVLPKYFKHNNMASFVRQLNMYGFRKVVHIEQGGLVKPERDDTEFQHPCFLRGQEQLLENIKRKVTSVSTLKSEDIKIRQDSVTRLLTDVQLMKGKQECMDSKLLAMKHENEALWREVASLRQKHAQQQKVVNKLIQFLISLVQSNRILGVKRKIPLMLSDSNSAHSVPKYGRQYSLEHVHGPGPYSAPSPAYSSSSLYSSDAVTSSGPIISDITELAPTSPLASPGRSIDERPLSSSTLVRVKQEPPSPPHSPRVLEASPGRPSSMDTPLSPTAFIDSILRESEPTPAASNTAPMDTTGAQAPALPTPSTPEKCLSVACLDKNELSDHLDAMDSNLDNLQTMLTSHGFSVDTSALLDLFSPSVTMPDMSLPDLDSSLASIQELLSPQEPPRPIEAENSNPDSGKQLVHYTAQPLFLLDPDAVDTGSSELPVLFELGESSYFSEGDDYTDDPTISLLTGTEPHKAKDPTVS
Briefly: enhancement of HSF1-driven luciferase signal – cell-based, NIH3T3, luminescence, dose retest, confirmation (AID 435004).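 Further: stress induced by proteasome inhibitor MG132 added 30 min after compound; luciferase reporter driven by HSF1 response element in NIH3T3 cells; actives raise luminescence as potentiators of the MG132 stress response.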 It is filed as functional.

The next assay has as its target T4, Protein RecA (Mycobacterium tuberculosis, UniProt P9WHJ3).
T4 sequence (P9WHJ3 whole entry): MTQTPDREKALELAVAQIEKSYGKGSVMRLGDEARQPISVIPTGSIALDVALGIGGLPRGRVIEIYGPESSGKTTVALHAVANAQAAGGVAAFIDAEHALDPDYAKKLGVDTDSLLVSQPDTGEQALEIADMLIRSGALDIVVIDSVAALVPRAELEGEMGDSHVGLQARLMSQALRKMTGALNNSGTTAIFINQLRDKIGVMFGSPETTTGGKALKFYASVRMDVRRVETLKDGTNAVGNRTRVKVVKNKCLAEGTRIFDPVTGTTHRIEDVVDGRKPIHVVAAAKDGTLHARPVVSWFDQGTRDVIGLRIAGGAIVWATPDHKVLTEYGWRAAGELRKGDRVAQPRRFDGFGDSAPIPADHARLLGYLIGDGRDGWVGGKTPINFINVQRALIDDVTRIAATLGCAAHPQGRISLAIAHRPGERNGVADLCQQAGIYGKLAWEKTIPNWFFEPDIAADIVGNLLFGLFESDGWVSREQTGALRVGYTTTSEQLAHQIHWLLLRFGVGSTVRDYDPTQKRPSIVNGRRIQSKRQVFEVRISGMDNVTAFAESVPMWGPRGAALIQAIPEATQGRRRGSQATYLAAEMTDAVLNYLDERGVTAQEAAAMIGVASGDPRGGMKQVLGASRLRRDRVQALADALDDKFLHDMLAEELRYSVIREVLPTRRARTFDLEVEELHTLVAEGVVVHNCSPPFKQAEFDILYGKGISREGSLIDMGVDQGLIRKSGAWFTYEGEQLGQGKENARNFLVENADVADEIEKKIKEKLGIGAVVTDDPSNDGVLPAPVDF
Briefly: Fluorescence Cell-Free Homogeneous Dose Retest to Identify Inhibitors of RecA-Intein Splicing Activity. [Related pubchem assays (depositor defined):AID2097, AID2223, AID489010, AID492950]. It is filed as functional.

For assay [13], the target named is Heat shock protein HSP 90-alpha (Homo sapiens, UniProt P07900). Type of assay: functional, organism-based.

In general, AC50 refers to the midpoint of the concentration-response curve, whichever way the signal moves. Consider `C[C@H](CO)N1C[C@H](C)[C@H](CN(C)S(=O)(=O)c2ccccc2)Oc2ccc(NS(=O)(=O)c3cccs3)cc2CC1=O`, for which the AC50 is 12.6 µM (active) in assay [1], 2.13 µM (active) in assay [2] and 557 nM (active) in [3].

By GI50 is commonly meant the concentration at which growth is held to half of that of the control. Regarding `CNC(=O)SCC(N)C(=O)O` (configuration not stated), the GI50 in the assay on P388 is 16.5 µM (inactive); in the assay on SN12K1 it was 62.2 µM (inactive); in the assay on P388/ADR it was 16.8 µM (inactive).

`COc1ccc(CNC(=O)N(C)C[C@H]2OCc3ccccc3-c3ccccc3C(=O)N([C@H](C)CO)C[C@@H]2C)cc1`: the half-maximal activity concentration (AC50) in assay [1] is 3.51 µM (active); in assay [2] it was 1.16 µM (active); in assay [3] it was 826 nM (active).

On to `CSc1nc(NC2OC(CO)C(O)C(O)C2O)c(N)c(=O)[nH]1` (configuration not stated), for which the GI50 with P388, in the assay with SN12K1 and in the assay with P388/ADR was > 100 µM (inactive) throughout.

With `C[C@H](CO)N1C[C@H](C)[C@H](CN(C)S(=O)(=O)c2ccccc2)Oc2ncc(/C=C/c3ccccc3)cc2C1=O`, the AC50 in [2] is 3.51 µM (active).

As for `CSc1nc(CO)c(CO)n1C`, the GI50 with P388, with SN12K1 and in the assay on P388/ADR was > 100 µM (inactive) throughout.

For the compound `Nc1cccc2c1C1=NNC(=O)CC1C2` (configuration not stated), the GI50 with P388 and in the assay on SN12K1 was > 100 µM (inactive) in each case.

The term EC50 denotes the midpoint of the concentration-response curve. For `Oc1nc(Nc2nc3ccccc3o2)nc2c1CCCC2`, the AC50 in assay [4] is 7.71 µM (active); in [6], 9.63 µM (active); with HEK293 it was 2.05 µM (active); in assay [7], 5.26 µM (active). Moreover, the figures for the concentration giving a half-maximal response (EC50) in assay [5] and in [8] were 3.87 µM (active) and 1.9 µM (active), respectively.

As for `c1ccc2c(c1)OCCc1cn[nH]c1-2`, the GI50 in the assay on P388, in the assay with SN12K1 and in the assay with P388/ADR was > 100 µM (inactive) in each case.

For the compound `O=c1c2cnn(-c3ccccc3)c2nc(-c2cccs2)n1-c1ccc(Br)cc1`, the AC50 with HEK293 is 1.77 µM (active).

On to `CC(=O)Oc1cc2c(cc1OC(C)=O)OCC(c1ccccc1)C2` (configuration not stated), for which the GI50 is 4.16 µM (inactive) in the assay on P388, 13.6 µM (inactive) with SN12K1 and 4.08 µM (inactive) in the assay on P388/ADR.

Take `C[C@H](CO)N1C[C@H](C)[C@H](CN(C)CC2CC2)Oc2ccc(NC(=O)Nc3ccc4c(c3)OCO4)cc2CC1=O`: the AC50 in assay [1] was 20.5 µM (active); in [3], 4410 nM (active).

With `Cc1ccccc1NC(=O)C(Cl)=C(Cl)Cl`, the results for the AC50 (in the assay on HEK293; in assay [9]) were 22.1 µM (active) and 6.73 µM (active), respectively.

Regarding `COc1cccc(-c2cnc3c(c2)C(=O)N([C@H](C)CO)C[C@H](C)[C@H](CN(C)C(=O)Nc2cccc4ccccc24)O3)c1`, the AC50 is 0.407 µM (active) in assay [1], 0.284 µM (active) in [2] and < 260 nM (active) in assay [3].

With `O=C(CCl)Nc1cccc(Oc2ccccc2)c1`, the AC50 in [10] is 8.07 µM (active); in [11], 11.9 µM (active). In addition, the EC50 is > 260 µM (inactive) in assay [12] and 4.28 µM (active) on Protein RecA.

As to `c1ccc(C(=NNc2nc3ccccc3s2)c2ccccn2)cc1`, the half-maximal activity concentration (AC50) in assay [13] was 16.4 µM (active); in the assay on HEK293, 3.05 µM (active).

With `COc1ccc2c(c1O)-c1cc(O)cc3c1[C@@H](C2)N(C)CC3`, the GI50 with P388 was 9.1 µM (inactive); with SN12K1, 63.4 µM (inactive); in the assay on P388/ADR, 40.2 µM (inactive).
